Assay results published in PubChem BioAssay (NCI).
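48-hour exposure; five concentrations; linearly interpolated endpoints. GI50 is the concentration that inhibits growth by half. TGI denotes the concentration required for complete inhibition of growth.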

Experiments:
Test in all cases: NCI anticancer screen, dose series, 48 h
SF-539 CNS = tested on: SF-539 CNS
A498 renal = tested on: A498 renal
OVCAR-5 ovarian = tested on: OVCAR-5 ovarian
SK-MEL-2 melanoma = tested on: SK-MEL-2 melanoma
IGROV1 ovarian = tested on: IGROV1 ovarian
UACC-257 melanoma = tested on: UACC-257 melanoma
ACHN renal = tested on: ACHN renal
MALME-3M melanoma = tested on: MALME-3M melanoma
SK-MEL-28 melanoma = tested on: SK-MEL-28 melanoma
SF-268 CNS = tested on: SF-268 CNS
NCI-H226 lung = tested on: NCI-H226 lung
K-562 leukemia = tested on: K-562 leukemia
MDA-MB-435 = tested on: MDA-MB-435
EKVX NSCLC = tested on: EKVX NSCLC
PC-3 prostate = tested on: PC-3 prostate
RXF 393 renal = tested on: RXF 393 renal
MCF7 breast = tested on: MCF7 breast
HL-60(TB) leukemia = tested on: HL-60(TB) leukemia
MOLT-4 leukemia = tested on: MOLT-4 leukemia
786-0 renal = tested on: 786-0 renal
OVCAR-4 ovarian = tested on: OVCAR-4 ovarian
OVCAR-3 ovarian = tested on: OVCAR-3 ovarian
DU-145 prostate = tested on: DU-145 prostate
COLO 205 colon = tested on: COLO 205 colon
LOX IMVI melanoma = tested on: LOX IMVI melanoma
HCT-15 colon = tested on: HCT-15 colon
NCI-H460 lung = tested on: NCI-H460 lung
T-47D breast = tested on: T-47D breast
UACC-62 melanoma = tested on: UACC-62 melanoma
U251 CNS = tested on: U251 CNS
UO-31 renal = tested on: UO-31 renal
NCI/ADR-RES ovarian = tested on: NCI/ADR-RES ovarian
NCI-H522 lung = tested on: NCI-H522 lung
SNB-19 CNS = tested on: SNB-19 CNS
NCI-H23 lung = tested on: NCI-H23 lung
SW-620 colon = tested on: SW-620 colon
HOP-62 NSCLC = tested on: HOP-62 NSCLC
HCT-116 colon = tested on: HCT-116 colon
TK-10 renal = tested on: TK-10 renal
SK-OV-3 ovarian = tested on: SK-OV-3 ovarian
KM12 colon = tested on: KM12 colon
SF-295 CNS = tested on: SF-295 CNS
HCC-2998 colon = tested on: HCC-2998 colon
A549 NSCLC = tested on: A549 NSCLC
CCRF-CEM leukemia = tested on: CCRF-CEM leukemia
SK-MEL-5 melanoma = tested on: SK-MEL-5 melanoma
OVCAR-8 ovarian = tested on: OVCAR-8 ovarian
M14 melanoma = tested on: M14 melanoma
HS 578T breast = tested on: HS 578T breast
CAKI-1 renal = tested on: CAKI-1 renal
SN12C renal = tested on: SN12C renal
SNB-75 CNS = tested on: SNB-75 CNS
HOP-92 NSCLC = tested on: HOP-92 NSCLC
MDA-MB-231 breast = tested on: MDA-MB-231 breast
BT-549 breast = tested on: BT-549 breast
HT29 colon = tested on: HT29 colon

O=[N+]([O-])c1cnc(Sc2ccncn2)s1
GI50 (SF-539 CNS): 5.61 µM
TGI (SF-539 CNS): 14.9 µM
GI50 (A498 renal): 18.6 µM
TGI (A498 renal): 33.3 µM
GI50 (OVCAR-5 ovarian): 14 µM
TGI (OVCAR-5 ovarian): 28.3 µM
GI50 (SK-MEL-2 melanoma): 7.99 µM
TGI (SK-MEL-2 melanoma): 21.9 µM
GI50 (IGROV1 ovarian): 1.71 µM
TGI (IGROV1 ovarian): 3.35 µM
GI50 (UACC-257 melanoma): 2.94 µM
TGI (UACC-257 melanoma): 7.5 µM
GI50 (ACHN renal): 1.81 µM
TGI (ACHN renal): 3.24 µM
GI50 (MALME-3M melanoma): 2.07 µM
TGI (MALME-3M melanoma): 3.94 µM
GI50 (SK-MEL-28 melanoma): 1.98 µM
TGI (SK-MEL-28 melanoma): 3.69 µM
GI50 (SF-268 CNS): 2.65 µM
TGI (SF-268 CNS): 7.29 µM
GI50 (NCI-H226 lung): 8.37 µM
TGI (NCI-H226 lung): 34 µM
GI50 (K-562 leukemia): 1.31 µM
TGI (K-562 leukemia): 3.8 µM
GI50 (MDA-MB-435): 2.95 µM
TGI (MDA-MB-435): 8.76 µM
GI50 (EKVX NSCLC): 6.46 µM
TGI (EKVX NSCLC): 22.1 µM
GI50 (PC-3 prostate): 2.73 µM
TGI (PC-3 prostate): 17 µM
GI50 (RXF 393 renal): 0.312 µM
TGI (RXF 393 renal): 1.68 µM
GI50 (MCF7 breast): 1.65 µM
TGI (MCF7 breast): 3.45 µM
GI50 (HL-60(TB) leukemia): 1.69 µM
TGI (HL-60(TB) leukemia): 4.18 µM
GI50 (MOLT-4 leukemia): 2 µM
TGI (MOLT-4 leukemia): 5.04 µM
GI50 (786-0 renal): 6.72 µM
TGI (786-0 renal): 18.4 µM
GI50 (OVCAR-4 ovarian): 1.76 µM
TGI (OVCAR-4 ovarian): 3.27 µM
GI50 (OVCAR-3 ovarian): 1.74 µM
TGI (OVCAR-3 ovarian): 3.16 µM
GI50 (DU-145 prostate): 1.8 µM
TGI (DU-145 prostate): 3.22 µM
GI50 (COLO 205 colon): 1.75 µM
TGI (COLO 205 colon): 3.35 µM
GI50 (LOX IMVI melanoma): 2.65 µM
TGI (LOX IMVI melanoma): 6.7 µM
GI50 (HCT-15 colon): 1.75 µM
TGI (HCT-15 colon): 3.44 µM
GI50 (NCI-H460 lung): 8.12 µM
TGI (NCI-H460 lung): 25.9 µM
GI50 (T-47D breast): 2.16 µM
TGI (T-47D breast): 4.68 µM
GI50 (UACC-62 melanoma): 6.12 µM
TGI (UACC-62 melanoma): 16.9 µM
GI50 (U251 CNS): 3.49 µM
TGI (U251 CNS): 11.5 µM
GI50 (UO-31 renal): 1.75 µM
TGI (UO-31 renal): 3.2 µM
GI50 (NCI/ADR-RES ovarian): 11.3 µM
TGI (NCI/ADR-RES ovarian): 38.3 µM
GI50 (NCI-H522 lung): 1.62 µM
TGI (NCI-H522 lung): 3.34 µM
GI50 (SNB-19 CNS): 15.9 µM
TGI (SNB-19 CNS): 31.9 µM
GI50 (NCI-H23 lung): 8.99 µM
TGI (NCI-H23 lung): 26.4 µM
GI50 (SW-620 colon): 1.66 µM
TGI (SW-620 colon): 3.29 µM
GI50 (HOP-62 NSCLC): 21.8 µM
TGI (HOP-62 NSCLC): 40.2 µM
GI50 (HCT-116 colon): 1.84 µM
TGI (HCT-116 colon): 3.33 µM
GI50 (TK-10 renal): 2.14 µM
TGI (TK-10 renal): 4.22 µM
GI50 (SK-OV-3 ovarian): 21.2 µM
TGI (SK-OV-3 ovarian): 45.4 µM
GI50 (KM12 colon): 10.8 µM
TGI (KM12 colon): 23.1 µM
GI50 (SF-295 CNS): 18 µM
TGI (SF-295 CNS): 41 µM
GI50 (HCC-2998 colon): 5.46 µM
TGI (HCC-2998 colon): 10.7 µM
GI50 (A549 NSCLC): 10.1 µM
TGI (A549 NSCLC): 27.1 µM
GI50 (CCRF-CEM leukemia): 1.51 µM
TGI (CCRF-CEM leukemia): 3.53 µM
GI50 (SK-MEL-5 melanoma): 4.86 µM
TGI (SK-MEL-5 melanoma): 14.6 µM
GI50 (OVCAR-8 ovarian): 3.94 µM
TGI (OVCAR-8 ovarian): 13.1 µM
GI50 (M14 melanoma): 2.76 µM
TGI (M14 melanoma): 7.25 µM
GI50 (HS 578T breast): 2.37 µM
TGI (HS 578T breast): 5.59 µM
GI50 (CAKI-1 renal): 1.64 µM
TGI (CAKI-1 renal): 3.07 µM
GI50 (SN12C renal): 3.24 µM
TGI (SN12C renal): 8.41 µM
GI50 (SNB-75 CNS): 3.84 µM
TGI (SNB-75 CNS): 18.8 µM
GI50 (HOP-92 NSCLC): 1.99 µM
TGI (HOP-92 NSCLC): 4.4 µM
GI50 (MDA-MB-231 breast): 3.98 µM
TGI (MDA-MB-231 breast): 15.1 µM
GI50 (BT-549 breast): 4.84 µM
TGI (BT-549 breast): 9.55 µM
GI50 (HT29 colon): 2.65 µM
TGI (HT29 colon): 6.37 µM
